Series [1] deals with human SMAD7 mRNA. As to the kind of experiment: Antisense inhibition of human SMAD7 mRNA expression in Hep3B cells by 5-10-5 MOE gapmers, single concentration, electroporation, RT-PCR (Example 1, Study 1 and 2). The following applies: for % Inhibition of SMAD7 mRNA: electroporation with 15,000 nM antisense oligonucleotide (Study 2); for % Inhibition: Study 2, electroporation with 15,000 nM antisense oligonucleotide. Format: cell-based. The procedure, abridged: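 Readout is percent SMAD7 mRNA inhibition versus untreated cells, measured by qRT-PCR (RTS5062) and corrected for total RNA by RIBOGREEN. Oligonucleotide, 5,000 nM or 15,000 nM, was delivered by electroporation into Hep3B cells at 20,000 per well. RNA was collected about 24 h later.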

In series [2] the test system is human SMAD7 mRNA. As to the kind of experiment: Dose-dependent inhibition of human SMAD7 mRNA expression in Hep3B cells (Example 3, Study 1 and 2). It is filed as cell-based. The following applies: electroporation; for % inhibition of SMAD7 mRNA expression: approximately 16 hours; for IC50: Study 1 (312.5-20000 nM). The method, boiled down: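 Hep3B cells, 20,000 per well, electroporated with antisense oligonucleotide at 0.31, 1.25, 5.00 or 20.00 μM (first series) or 0.74, 2.22, 6.67 or 20.00 μM (second series). After ~16 h, SMAD7 mRNA measured by RT-qPCR (RTS5062), normalised to RIBOGREEN total RNA. Percent inhibition vs untreated cells; IC50 derived.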

Where [3] appears, read: 5-10-5 MOE gapmers targeting SEQ ID NO: 1 and 2.
Setting [4] is: electroporation, 15,000 nM antisense oligonucleotide (Study 2), 5-10-5 MOE gapmers targeting SEQ ID NO: 1 and 2.
[5] abbreviates: 312.5 nM, Study 1, relative to untreated control cells.
[6] abbreviates: electroporation, 5,000 nM, approximately 24 hours, relative to untreated control cells, gapmers targeting SEQ ID NO: 1 and 2.
Where [7] appears, read: electroporation, 15,000 nM, approximately 24 hours, relative to untreated control cells, gapmers targeting SEQ ID NO: 1 and 2.

Strand notation (5' to 3'): a small letter for the sugar, then the base; units joined by * are phosphorothioate-linked, units joined directly phosphodiester-linked; [ ] holds rarer units or linkages, { } end groups; capitals alone tell only the bases. e = 2'-O-(2-methoxyethyl) (MOE); [5mC] = 5-methylcytosine; d = 2'-deoxy (DNA)

For “278478 (antisense eA*e[5mC]*eA*eT*eG*dA*d[5mC]*d[5mC]*dT*d[5mC]*d[5mC]*dG*d[5mC]*dA*d[5mC]*eA*e[5mC]*e[5mC]*eA*eT) [compound 278478]”, the “% Inhibition of SMAD7 mRNA” value in the series on human SMAD7 mRNA [1] (setting [3]) is given as 54%. For the same substance, the “% inhibition of SMAD7 mRNA expression” value came out at 18% with human SMAD7 mRNA [1] (setting [4]); 0% with human SMAD7 mRNA [2] (setting [5]); 9% in the series on human SMAD7 mRNA [2] (1250.0 nM, Study 1); 19% in the series with human SMAD7 mRNA [2] (5000.0 nM, Study 1); 22% in the series with human SMAD7 mRNA [2] (20000.0 nM, Study 1). The substance also yielded an IC50 in the series on human SMAD7 mRNA [2] of over 20 µM.

As to “483663 (antisense e[5mC]*eA*eG*e[5mC]*e[5mC]*dT*d[5mC]*dT*dT*dG*dA*d[5mC]*dT*dT*d[5mC]*e[5mC]*eG*eA*eG*eG) [compound 483663]”, the “% Inhibition” value in the series with human SMAD7 mRNA [1] (setting [3]) is given as 56%. The “% Inhibition of SMAD7 mRNA” value in the series on human SMAD7 mRNA [1] (setting [3]) turned out to be 35%. The “% inhibition of SMAD7 mRNA expression” value in the series with human SMAD7 mRNA [1] (setting [6]) is on record as 47%; with human SMAD7 mRNA [1] (setting [4]), 41%; with human SMAD7 mRNA [1] (setting [7]) it was 49%; with human SMAD7 mRNA [2] (setting [5]), 0%; in the series on human SMAD7 mRNA [2] (1250.0 nM, Study 1), 0%; with human SMAD7 mRNA [2] (5000.0 nM, Study 1), 14%. Further, the “% inhibition of SMAD7 mRNA expression” value with human SMAD7 mRNA [2] (20000.0 nM, Study 1) was found to be 27%. In addition, the IC50 with human SMAD7 mRNA [2] was over 20 µM.

For “771345 (antisense eA*e[5mC]*eA*eG*e[5mC]*dA*dT*d[5mC]*dT*dG*dG*dA*d[5mC]*dA*dG*eT*e[5mC]*eA*eG*eT) [compound 771345]”, the “% inhibition of SMAD7 mRNA expression” value in the series with human SMAD7 mRNA [1] (electroporation, 15,000 nM, approximately 24 hours, gapmers targeting SEQ ID NO: 3 and 4) came to 54%; in the series with human SMAD7 mRNA [2] (setting [5]) it was 6%; with human SMAD7 mRNA [2] (1250.0 nM, Study 1), 19%; with human SMAD7 mRNA [2] (5000.0 nM, Study 1) it was 49%; with human SMAD7 mRNA [2] (20000.0 nM, Study 1) it was 69%. Half-maximal inhibition in the series on human SMAD7 mRNA [2] (IC50) was put at 6 µM.

In the case of “771386 (antisense e[5mC]*eT*eG*eG*eA*d[5mC]*dA*dG*dT*d[5mC]*dT*dG*d[5mC]*dT*dG*eT*eG*eG*eA*eT) [compound 771386]”, the “% Inhibition” value in the series with human SMAD7 mRNA [1] (setting [3]) was found to be 57%. Besides, the “% inhibition of SMAD7 mRNA expression” value in the series with human SMAD7 mRNA [2] (setting [5]) came to 9%; in the series on human SMAD7 mRNA [2] (1250.0 nM, Study 1), 3%; in the series on human SMAD7 mRNA [2] (5000.0 nM, Study 1) it was 25%; in the series with human SMAD7 mRNA [2] (20000.0 nM, Study 1) it was 60%. This substance also showed an IC50 with human SMAD7 mRNA [2] of 19 µM.

Take “771387 (antisense eA*eG*e[5mC]*eA*eT*d[5mC]*dT*dG*dG*dA*d[5mC]*dA*dG*dT*d[5mC]*eT*eG*e[5mC]*eT*eG) [compound 771387]”: in the series with human SMAD7 mRNA [1] (setting [3]), the “% Inhibition of SMAD7 mRNA” value was determined as 59%. For the same substance, the “% inhibition of SMAD7 mRNA expression” value in the series with human SMAD7 mRNA [1] (setting [4]) was determined as 6%; in the series on human SMAD7 mRNA [2] (setting [5]), 8%; in the series on human SMAD7 mRNA [2] (1250.0 nM, Study 1), 13%; in the series with human SMAD7 mRNA [2] (5000.0 nM, Study 1), 28%; in the series with human SMAD7 mRNA [2] (20000.0 nM, Study 1) it was 70%. For the same substance, the midpoint of inhibition in the series with human SMAD7 mRNA [2], the IC50, lay at 10 µM.

As for “771390 (antisense e[5mC]*eG*eG*e[5mC]*eT*dG*d[5mC]*d[5mC]*d[5mC]*d[5mC]*dA*d[5mC]*d[5mC]*d[5mC]*d[5mC]*eG*e[5mC]*eG*e[5mC]*eG) [compound 771390]”, the “% Inhibition” value in the series on human SMAD7 mRNA [1] (setting [3]) is given as 66%. In addition, the “% inhibition of SMAD7 mRNA expression” value turned out to be 32% in the series on human SMAD7 mRNA [1] (setting [6]); 0% with human SMAD7 mRNA [2] (setting [5]); 12% in the series on human SMAD7 mRNA [2] (1250.0 nM, Study 1); 26% in the series with human SMAD7 mRNA [2] (5000.0 nM, Study 1); 51% with human SMAD7 mRNA [2] (20000.0 nM, Study 1). The IC50 in the series with human SMAD7 mRNA [2] is over 20 µM.

On to “771397 (antisense eG*eA*eG*e[5mC]*eG*dG*d[5mC]*dG*dG*d[5mC]*dG*dG*d[5mC]*d[5mC]*d[5mC]*eG*eA*eG*eG*eG) [compound 771397]”, for which the “% inhibition of SMAD7 mRNA expression” value with human SMAD7 mRNA [1] (setting [4]) came to 55%; with human SMAD7 mRNA [2] (setting [5]) it was 0%; in the series with human SMAD7 mRNA [2] (1250.0 nM, Study 1), 0%; with human SMAD7 mRNA [2] (5000.0 nM, Study 1), 41%; in the series with human SMAD7 mRNA [2] (20000.0 nM, Study 1) it was 51%. In the series on human SMAD7 mRNA [2], this substance gave a half-inhibitory concentration (IC50) of 15 µM.

For the substance “771399 (antisense eG*e[5mC]*e[5mC]*e[5mC]*eG*dG*dG*d[5mC]*dA*dG*dG*dA*dG*d[5mC]*dG*eG*e[5mC]*eG*eG*e[5mC]) [compound 771399]”, in the series with human SMAD7 mRNA [1] (setting [3]), the “% Inhibition” value is 33%. Also, the “% inhibition of SMAD7 mRNA expression” value with human SMAD7 mRNA [2] (setting [5]) is listed as 0%; with human SMAD7 mRNA [2] (1250.0 nM, Study 1), 6%; in the series with human SMAD7 mRNA [2] (5000.0 nM, Study 1), 26%; in the series on human SMAD7 mRNA [2] (20000.0 nM, Study 1) it was 53%. Besides, the IC50 in the series on human SMAD7 mRNA [2] is over 20 µM.

With “771932 (antisense e[5mC]*eG*eA*eG*eG*dT*dG*d[5mC]*d[5mC]*d[5mC]*d[5mC]*d[5mC]*dA*dT*dG*e[5mC]*e[5mC]*eA*eG*eG) [compound 771932]”, the “% Inhibition” value in the series on human SMAD7 mRNA [1] (setting [3]) is on record as 13%.

In the case of “771933 (antisense eA*eT*e[5mC]*eG*eA*dG*dG*dT*dG*d[5mC]*d[5mC]*d[5mC]*d[5mC]*d[5mC]*dA*eT*eG*e[5mC]*e[5mC]*eA) [compound 771933]”, the “% inhibition of SMAD7 mRNA expression” value with human SMAD7 mRNA [1] (setting [7]) stood at 31%.

As for “771934 (antisense e[5mC]*eT*eG*eG*eA*dA*dA*dG*dG*dA*dA*dG*dA*d[5mC]*dT*e[5mC]*eG*eA*eG*eG) [compound 771934]”, the “% Inhibition” value in the series on human SMAD7 mRNA [1] (setting [3]) was 15%.

In the case of “771935 (antisense eG*eG*eA*eA*eG*dG*dA*d[5mC]*dA*d[5mC]*dA*dT*dT*dG*dG*e[5mC]*eA*eT*e[5mC]*eA) [compound 771935]”, the “% Inhibition” value in the series on human SMAD7 mRNA [1] (setting [3]) stood at 23%.

In the case of “771936 (antisense eT*eG*eT*eT*eT*d[5mC]*dT*dG*dT*dG*dT*dG*d[5mC]*dA*d[5mC]*eA*eT*eA*e[5mC]*eG) [compound 771936]”, the “% Inhibition of SMAD7 mRNA” value in the series with human SMAD7 mRNA [1] (setting [3]) is listed as 32%. The “% inhibition of SMAD7 mRNA expression” value in the series with human SMAD7 mRNA [1] (setting [4]) was found to be 36%.

As a reminder, the IC50 is the concentration that inhibits the measured activity by half. A word on the % Inhibition: it is the drop in the measured response relative to a control, in per cent. A low value points to a weak effect.

The values are drawn from patent US10517889B2, “Modulators of SMAD7 expression” (Ionis Pharmaceuticals, Inc., priority 2017, dated 2019).
